biological target: T1, GAL4-DBD/RORγ-LBD (Homo sapiens, UniProt P51449); assay: RORγt transactivation reporter assay (GAL4-DBD/RORγ-LBD, luciferase read out); assay type: cell-based; details: HEK293T cells, GAL4-UAS luciferase reporter, overnight (18-24 hours) incubation
T1 construct: expressed in transfected cells; host or cells: HEK293T
Experimental: RORγt Transactivation Reporter Assay Protocol: The inhibition of RORγt activity in cells was evaluated using a GAL4-UAS reporter system in HEK293T cells employing a luciferase read out. RORγt ligand binding domain (LBD) was cloned into the pFN26A (BIND) vector (Promega #[…]) containing yeast GAL4-DBD to form a RORγt LBD-GAL4 DBD fusion construct. This vector also contained a Renilla Luciferase reporter expressed under a SV40 promoter which was used as a control for transfection efficiency. A transcriptional reporter expression construct pGL4.35 (Promega #[…]) was used to monitor RORγt LBD-GAL4 activity. This construct contained nine repeats of GAL4 binding site/upstream activating sequence (UAS) controlling expression of a firefly luciferase reporter Luc2P. When transfected together in cells, the RORγ-LBD-DBD fusion protein drives expression of the luciferase reporter. For the assay, HEK293T cells were plated in a flat bottom 96 well plate at a density of 25,000 cells/well/100 ul of DMEM high glucose medium (Sigma D5648) containing 10% FBS and antibiotic. Cells were incubated overnight at 37 C/5% CO2. The next day, medium from the wells was removed and replaced with 30 ul of OptiMEM® (Invitrogen #31985070). 100 ng each of pBIND RORγ LBD-DBD and pGL4.35 reporter plasmids was transfected in HEK293T cells using Lipofectamine 2000 (Invitrogen #11668-019) where 10 ul of transfection complex was added to the each well. Control transfections were performed with an empty pF[…] vector and pGL4.35 vector. The transfected cells were incubated for 5 hours at 37 C/5% CO2. After incubation, 40 ul of DMEM high glucose medium without FBS, with antibiotic was added to each well. A 10 mM stock solution of test compound prepared in 100% DMSO was first diluted in DMSO and then in DMEM medium without FBS to give the required final compound concentration. Concentration of DMSO in the test compound solution was 0.4%. 20 ul of diluted compound solution was added to each well. Cells were incubated overnight (18-24 hours) at 37 C/5% CO2. The next day, luciferase assay was performed using the Dual Glo® Luciferase Assay System (Promega #E2940). Briefly, medium was removed from the wells and replaced with 40 ul 1× Passive Lysis Buffer (Promega #E1941). Plate was incubated at room temperature on a plate shaker at 1000 rpm for 40 min. After incubation, plate was centrifuged at 1000 rpm for 2 min. 20 ul of the lysate was transferred from each well to that of solid white half area 96 well plate (Costar #3693). Dual Glo® Reagent was thawed to room temperature and 20 ul was added to each well containing lysate. Plate was centrifuged at 1000 rpm/2 min and incubated at room temperature on a plate shaker at 600 rpm/25 min. Firefly luciferase signal was measured on a Tecan Safire2. After measurement, 20 ul of Dual Glo® Stop Glo® Reagent was added to each well. Plate was centrifuged at 1000 rpm/2 min and incubated at room temperature on a plate shaker at 600 rpm/25 min. Renilla luciferase signal was measured on Tecan Safire 2. IC50 values for test compounds were calculated from the normalized luciferase signal data using GraphPad Prism software.

T1 sequence (P51449 269-508 limits assumed): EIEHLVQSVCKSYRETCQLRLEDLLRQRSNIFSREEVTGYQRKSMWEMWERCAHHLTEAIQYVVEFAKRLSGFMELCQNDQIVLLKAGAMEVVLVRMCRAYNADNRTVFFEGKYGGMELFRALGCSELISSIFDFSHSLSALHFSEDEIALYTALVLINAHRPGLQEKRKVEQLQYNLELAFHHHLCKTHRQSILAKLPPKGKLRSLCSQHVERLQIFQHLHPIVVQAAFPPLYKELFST
T1 sequence (P04386 1-147 partner limits assumed): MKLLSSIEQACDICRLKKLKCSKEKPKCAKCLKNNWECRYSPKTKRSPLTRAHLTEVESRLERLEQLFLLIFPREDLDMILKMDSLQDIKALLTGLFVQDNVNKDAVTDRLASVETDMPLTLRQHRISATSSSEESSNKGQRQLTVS

| Compound | IC50 [nM] |
| --- | --- |
| O=C(O)c1ccc(-c2c(F)c(C(=O)c3c(Cl)cccc3Cl)n3ccccc23)c(F)c1 [Example B-4, 4-[3-(2,6-dichlorobenzoyl)-2-fluoro-indolizin-1-yl]-3-fluoro-benzoic acid] | < 500 |
| CCOC(=O)c1ccc(-c2c(F)c(C(=O)c3c(Cl)ccc(F)c3Cl)n3ccccc23)cc1 [Example B-5, ethyl 4-[3-(2,6-dichloro-3-fluoro-benzoyl)-2-fluoro-indolizin-1-yl]benzoate] | < 500 |
| O=C(O)c1ccc(-c2c(F)c(C(=O)c3c(Cl)ccc(F)c3Cl)n3ccccc23)cc1 [Example B-6, 4-[3-(2,6-dichloro-3-fluoro-benzoyl)-2-fluoro-indolizin-1-yl]benzoic acid] | < 500 |
| CCOC(=O)c1ccc(-c2c(C)c(C(=O)c3c(Cl)cccc3Cl)n3ccccc23)c(F)c1 [Example C-1, ethyl 4-[3-(2,6-dichlorobenzoyl)-2-methyl-indolizin-1-yl]-3-fluoro-benzoate] | < 500 |
| Cc1c(-c2ccc(C(=O)O)cc2F)c2ccccn2c1C(=O)c1c(Cl)cccc1Cl [Example C-2, 4-[3-(2,6-dichlorobenzoyl)-2-methyl-indolizin-1-yl]-3-fluoro-benzoic acid] | < 500 |
| CCOC(=O)c1ccc(-c2c(C)c(C(=O)c3c(Cl)cccc3Cl)n3ccccc23)cc1 [Example C-3, ethyl 4-[3-(2,6-dichlorobenzoyl)-2-methyl-indolizin-1-yl]benzoate] | < 500 |
| Cc1c(-c2ccc(C(=O)O)cc2)c2ccccn2c1C(=O)c1c(Cl)cccc1Cl [Example C-4, 4-[3-(2,6-dichlorobenzoyl)-2-methyl-indolizin-1-yl]benzoic acid] | < 500 |
| Cc1c(-c2ccc(C(=O)O)cc2)c2ccccn2c1C(=O)c1c(Cl)ccnc1Cl [Example C-5, 4-[3-(2,4-dichloropyridine-3-carbonyl)-2-methyl-indolizin-1-yl]benzoic acid] | < 500 |
| Cc1c(-c2ccc(C(=O)O)cc2F)c2ccccn2c1C(=O)c1c(Cl)cccc1C(F)(F)F [Example C-6, 4-[3-[2-chloro-6-(trifluoromethyl)benzoyl]-2-methyl-indolizin-1-yl]-3-fluoro-benzoic acid] | < 500 |
| Cc1c(-c2ccc(C(=O)O)cc2)c2ccccn2c1C(=O)c1c(Cl)cccc1C(F)(F)F [Example C-7, 4-[3-[2-chloro-6-(trifluoromethyl)benzoyl]-2-methyl-indolizin-1-yl]benzoic acid] | < 500 |
| COC(=O)c1ccc(-c2c(C)c(C(=O)c3c(Cl)cccc3C(F)(F)F)n3ccccc23)c(F)c1 [Example C-8, methyl 4-[3-[2-chloro-6-(trifluoromethyl)benzoyl]-2-methyl-indolizin-1-yl]-3-fluoro-benzoate] | < 500 |
| CCOC(=O)c1ccc(-c2c(C)c(C(=O)c3c(Cl)cccc3C(F)(F)F)n3ccccc23)cc1 [Example C-9, ethyl 4-[3-[2-chloro-6-(trifluoromethyl)benzoyl]-2-methyl-indolizin-1-yl]benzoate] | < 500 |
| CCOC(=O)c1ccc(-c2c(C)c(C(=O)c3c(Cl)ccnc3Cl)n3ccccc23)cc1 [Example C-10, ethyl 4-[3-(2,4-dichloropyridine-3-carbonyl)-2-methyl-indolizin-1-yl]benzoate] | < 5000 |
| CN(C)C(=O)c1ccc2c(-c3ccc(C(=O)O)cc3)cc(C(=O)c3c(Cl)cccc3C(F)(F)F)n2c1 [Example D-1, 4-[3-[2-chloro-6-(trifluoromethyl)benzoyl]-6-(dimethylcarbamoyl)indolizin-1-yl]benzoic acid] | < 500 |
| CN(C)C(=O)c1ccc2c(-c3ccc(C(=O)O)cc3)cc(C(=O)c3c(Cl)cccc3Cl)n2c1 [Example D-2, 4-[3-(2,6-dichlorobenzoyl)-6-(dimethylcarbamoyl)indolizin-1-yl]benzoic acid] | < 500 |
| O=C(O)c1ccc(-c2cc(C(=O)c3c(Cl)cccc3Cl)n3cc(C(=O)N4CCOCC4)ccc23)cc1 [Example D-3, 4-[3-(2,6-dichlorobenzoyl)-6-(morpholine-4-carbonyl)indolizin-1-yl]benzoic acid] | < 1000 |

| Compound | IC50 [nM] |
| --- | --- |
| O=C(O)c1ccc(-c2cc(C(=O)c3c(Cl)cccc3Cl)n3cc(C(=O)N4CCCCC4)ccc23)cc1 [Example D-4, 4-[3-(2,6-dichlorobenzoyl)-6-(piperidine-1-carbonyl)indolizin-1-yl]benzoic acid] | < 1000 |
| O=C(O)c1ccc(-c2cc(C(=O)c3c(Cl)cccc3Cl)n3cc(C(=O)N4CCCC4)ccc23)cc1 [Example D-5, 4-[3-(2,6-dichlorobenzoyl)-6-(pyrrolidine-1-carbonyl)indolizin-1-yl]benzoic acid] | < 500 |
| O=C(O)c1ccc(-c2cc(C(=O)c3c(Cl)cccc3Cl)n3cc(C(=O)N4CCC4)ccc23)cc1 [Example D-6, 4-[6-(azetidine-1-carbonyl)-3-(2,6-dichlorobenzoyl)indolizin-1-yl]benzoic acid] | < 500 |
| O=C(O)c1ccc(-c2cc(C(=O)c3c(Cl)cccc3Cl)n3cc(C(=O)NCCO)ccc23)cc1 [Example D-7, 4-[3-(2,6-dichlorobenzoyl)-6-(2-hydroxyethylcarbamoyl)indolizin-1-yl]benzoic acid] | > 5000 |
| COCCNC(=O)c1ccc2c(-c3ccc(C(=O)O)cc3)cc(C(=O)c3c(Cl)cccc3Cl)n2c1 [Example D-8, 4-[3-(2,6-dichlorobenzoyl)-6-(2-methoxyethylcarbamoyl)indolizin-1-yl]benzoic acid] | > 5000 |
| O=C(O)c1ccc(-c2cc(C(=O)c3c(Cl)cccc3C(F)(F)F)n3cc(C(=O)N4CCC4)ccc23)cc1 [Example D-11, 4-[6-(azetidine-1-carbonyl)-3-[2-chloro-6-(trifluoromethyl)benzoyl]indolizin-1-yl]benzoic acid] | < 500 |
| COC1CN(C(=O)c2ccc3c(-c4ccc(C(=O)O)cc4)cc(C(=O)c4c(Cl)cccc4Cl)n3c2)C1 [Example D-14, 4-[3-(2,6-dichlorobenzoyl)-6-(3-methoxyazetidine-1-carbonyl)indolizin-1-yl]benzoic acid] | < 500 |
| COC(=O)c1ccc(-c2cc(Oc3c(Cl)cccc3Cl)n3ccccc23)c(F)c1 [Example E-1, methyl 4-[3-(2,6-dichlorophenoxy)indolizin-1-yl]-3-fluoro-benzoate] | < 500 |
| O=C(O)c1ccc(-c2cc(Oc3c(Cl)cccc3Cl)n3ccccc23)c(F)c1 [Example E-2, 4-[3-(2,6-dichlorophenoxy)indolizin-1-yl]-3-fluoro-benzoic acid] | < 5000 |
| CNC(=O)c1ccc(-c2nc(C(=O)c3c(Cl)ccc(F)c3Cl)n3ccccc23)cc1 [Example F-1, 4-[3-(2,6-dichloro-3-fluoro-benzoyl)imidazo[1,5-a]pyridin-1-yl]-N-methyl-benzamide] | > 5000 |
| O=C(c1c(Cl)ccc(F)c1Cl)c1cc(-c2ccc(C(=O)N3CCOCC3)cc2)c2ccccn12 [Example F-3, [4-[3-(2,6-dichloro-3-fluoro-benzoyl)indolizin-1-yl]phenyl]-morpholino-methanone] | > 5000 |
| CCS(=O)(=O)N1CC=C(c2cc(C(=O)c3c(Cl)cccc3Cl)n3ccccc23)CC1 [Example G-1, (2,6-dichlorophenyl)-[1-(1-ethylsulfonyl-3,6-dihydro-2H-pyridin-4-yl)indolizin-3-yl]methanone] | > 5000 |
| CCS(=O)(=O)N1CCC=C(c2cc(C(=O)c3c(Cl)ccc(F)c3Cl)n3ccccc23)C1 [Example G-2, (2,6-dichloro-3-fluoro-phenyl)-[1-(1-ethylsulfonyl-3,6-dihydro-2H-pyridin-5-yl)indolizin-3-yl]methanone] | > 5000 |
| O=C(O)c1ccc(-c2cc(C(=O)c3c(Cl)cccc3C(F)(F)F)n3c2CCCC3)cc1 [Example H-1, 4-[3-[2-chloro-6-(trifluoromethyl)benzoyl]-5,6,7,8-tetrahydroindolizin-1-yl]benzoic acid] | < 500 |
| Cc1c(-c2ccc(C(=O)O)cc2F)c2n(c1C(=O)c1c(Cl)cccc1Cl)CCCC2 [Example H-2, 4-[3-(2,6-dichlorobenzoyl)-2-methyl-5,6,7,8-tetrahydroindolizin-1-yl]-3-fluoro-benzoic acid] | < 500 |
